The supplement of paper PMC10883282
± gives the standard deviation of the averaged measurements.

System: HT1080
Assay: relative viability vs DMSO control (72 h) (fraction); higher = more viable cells
How it was run: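 ATPLite readings, expressed as percent growth and averaged over up to triplicate wells, provided relative viability. Before reading, sarcoma cell lines seeded in 384-well plates to reach 80–90% confluence received 2.5 µl of serially diluted compound after 24 h, from source plates of 10 mM to 0.0002 mM. Plates were held 72 h at 37 °C, 5% CO2, with 0.1% DMSO as vehicle and a 5 µM positive control. The data were rescaled to 1 for full and 0 for none.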

SMILES	relative viability (0.00017 µM)	relative viability (0.00051 µM)	relative viability (0.00152 µM)	relative viability (0.00457 µM)	relative viability (0.01372 µM)	relative viability (0.04115 µM)	relative viability (0.1235 µM)	relative viability (0.3704 µM)	relative viability (1.111 µM)	relative viability (3.333 µM)	relative viability (10 µM)
COc1cc2nccc(Oc3ccc(NC(=O)Nc4cc(C)on4)c(Cl)c3)c2cc1OC [Tivozanib]	1.04 ± 0.027	1.06 ± 0.021	1.06 ± 0.032	1.07 ± 0.026	1.046 ± 0.01	1.06 ± 0.02	1.05 ± 0.019	1.07 ± 0.02	1.1 ± 0.04	1.12 ± 0.015	0.967 ± 0.021
C[C@]1(O)C[C@@H](c2nc(-c3ccc4ccc(-c5ccccc5)nc4c3)c3c(N)nccn32)C1 [Linsitinib]	1.044 ± 0.0049	1.09 ± 0.025	1.045 ± 0.0029	1.057 ± 0.009	1.04 ± 0.047	1.03 ± 0.018	1.03 ± 0.023	0.988 ± 0.025	0.968 ± 0.043	0.968 ± 0.025	0.881 ± 0.017
C=CC(=O)Nc1cccc(Oc2nc(Nc3ccc(N4CCN(C)CC4)cc3)nc3ccsc23)c1 [Olmutinib]	1.05 ± 0.021	1.08 ± 0.014	1.07 ± 0.017	1.07 ± 0.018	1.05 ± 0.049	1.0797 ± 0.00078	1.07 ± 0.011	1.06 ± 0.019	1.04 ± 0.015	1.03 ± 0.037	0.492 ± 0.13
O=C(Nc1cnn2ccc(N3CCC[C@@H]3c3cc(F)ccc3F)nc12)N1CC[C@H](O)C1 [Larotrectinib]	1.08 ± 0.042	1.05 ± 0.035	1.05 ± 0.039	1.05 ± 0.054	1.07 ± 0.038	1.06 ± 0.058	1.07 ± 0.014	1.09 ± 0.036	1.04 ± 0.028	1.06 ± 0.022	1.03 ± 0.022
